Test results as given in PubChem BioAssay (NCI).
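Abbreviation: GI50, concentration required for 50% inhibition of growth. At the TGI there is no net growth.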

Experiments:
Assay in all cases: NCI-60 cell line screen, 384-well format
786-0 renal = system: 786-0 renal
A498 renal = system: A498 renal
A549 NSCLC = system: A549 NSCLC
ACHN renal = system: ACHN renal
CAKI-1 renal = system: CAKI-1 renal
CCRF-CEM leukemia = system: CCRF-CEM leukemia
COLO 205 colon = system: COLO 205 colon
DU-145 prostate = system: DU-145 prostate
HCC-2998 colon = system: HCC-2998 colon
HCT-116 colon = system: HCT-116 colon
HCT-15 colon = system: HCT-15 colon
HL-60(TB) leukemia = system: HL-60(TB) leukemia
HOP-92 NSCLC = system: HOP-92 NSCLC
HT29 colon = system: HT29 colon
IGROV1 ovarian = system: IGROV1 ovarian
K-562 leukemia = system: K-562 leukemia
KM12 colon = system: KM12 colon
LOX IMVI melanoma = system: LOX IMVI melanoma
M14 melanoma = system: M14 melanoma
MALME-3M melanoma = system: MALME-3M melanoma
MCF7 breast = system: MCF7 breast
MDA-MB-231 breast = system: MDA-MB-231 breast
MDA-MB-435 melanoma = system: MDA-MB-435 melanoma
MDA-MB-468 breast = system: MDA-MB-468 breast
MOLT-4 leukemia = system: MOLT-4 leukemia
NCI-H226 lung = system: NCI-H226 lung
NCI-H23 lung = system: NCI-H23 lung
NCI-H322M lung = system: NCI-H322M lung
NCI-H460 NSCLC = system: NCI-H460 NSCLC
NCI-H522 lung = system: NCI-H522 lung
NCI/ADR-RES ovarian = system: NCI/ADR-RES ovarian
OVCAR-3 ovarian = system: OVCAR-3 ovarian
OVCAR-4 ovarian = system: OVCAR-4 ovarian
OVCAR-5 ovarian = system: OVCAR-5 ovarian
OVCAR-8 ovarian = system: OVCAR-8 ovarian
PC-3 prostate = system: PC-3 prostate
RPMI-8226 leukemia = system: RPMI-8226 leukemia
RXF 393 renal = system: RXF 393 renal
SF-268 CNS = system: SF-268 CNS
SF-295 CNS = system: SF-295 CNS
SF-539 CNS = system: SF-539 CNS
SK-MEL-2 melanoma = system: SK-MEL-2 melanoma
SK-MEL-28 melanoma = system: SK-MEL-28 melanoma
SK-MEL-5 melanoma = system: SK-MEL-5 melanoma
SK-OV-3 ovarian = system: SK-OV-3 ovarian
SN12C renal = system: SN12C renal
SNB-19 CNS = system: SNB-19 CNS
SR leukemia = system: SR leukemia
SW-620 colon = system: SW-620 colon
T-47D breast = system: T-47D breast
TK-10 renal = system: TK-10 renal
U251 glioblastoma = system: U251 glioblastoma
UACC-257 melanoma = system: UACC-257 melanoma
UACC-62 melanoma = system: UACC-62 melanoma
UO-31 renal = system: UO-31 renal

Work on `CCc1cc(Nc2nccc(-c3c(-c4ccc(OC)c(C(=O)Nc5c(F)cccc5F)c4)nc4ccccn34)n2)c(OC)cc1N1CCC(N2CCN(S(C)(=O)=O)CC2)CC1` yielded a GI50 ([…]-0 renal) greater than 100 µM, a TGI (786-0 renal) greater than 100 µM and a GI50 (A498 renal) greater than 100 µM. For the same compound, the TGI (A498 renal) was greater than 100 µM, the GI50 (A549 NSCLC) was greater than 100 µM and the TGI (A549 NSCLC) was greater than 100 µM. It also gave a GI50 (ACHN renal) greater than 100 µM, a TGI (ACHN renal) greater than 100 µM and a GI50 (CAKI-1 renal) greater than 100 µM. The TGI (CAKI-1 renal) was greater than 100 µM, the GI50 (CCRF-CEM leukemia) was greater than 100 µM and the TGI (CCRF-CEM leukemia) was greater than 100 µM. It also gave a GI50 (COLO 205 colon) greater than 100 µM, a TGI (COLO 205 colon) greater than 100 µM and a GI50 (DU-145 prostate) greater than 100 µM. The TGI (DU-145 prostate) was greater than 100 µM, the GI50 (HCC-2998 colon) was greater than 100 µM and the TGI (HCC-2998 colon) was greater than 100 µM. For the same compound, the GI50 (HCT-116 colon) was greater than 100 µM, the TGI (HCT-116 colon) was greater than 100 µM and the GI50 (HCT-15 colon) was greater than 100 µM. For the same compound, the TGI (HCT-15 colon) was greater than 100 µM, the GI50 (HL-60(TB) leukemia) was greater than 100 µM and the TGI (HL-60(TB) leukemia) was greater than 100 µM. For the same compound, the GI50 (HOP-92 NSCLC) was greater than 100 µM, the TGI (HOP-92 NSCLC) was greater than 100 µM and the GI50 (HT29 colon) was greater than 100 µM. The TGI (HT29 colon) was greater than 100 µM, the GI50 (IGROV1 ovarian) was greater than 100 µM and the TGI (IGROV1 ovarian) was greater than 100 µM. For the same compound, the GI50 (K-562 leukemia) was greater than 100 µM, the TGI (K-562 leukemia) was greater than 100 µM and the GI50 (KM12 colon) was greater than 100 µM. It also gave a TGI (KM12 colon) greater than 100 µM, a GI50 (LOX IMVI melanoma) greater than 100 µM and a TGI (LOX IMVI melanoma) greater than 100 µM. The GI50 (M14 melanoma) was greater than 100 µM, the TGI (M14 melanoma) was greater than 100 µM and the GI50 (MALME-3M melanoma) was greater than 100 µM. The TGI (MALME-3M melanoma) was greater than 100 µM, the GI50 (MCF7 breast) was greater than 100 µM and the TGI (MCF7 breast) was greater than 100 µM. The GI50 (MDA-MB-231 breast) was 18.6 µM, the TGI (MDA-MB-231 breast) was greater than 100 µM and the GI50 (MDA-MB-435 melanoma) was greater than 100 µM. The TGI (MDA-MB-435 melanoma) was greater than 100 µM, the GI50 (MDA-MB-468 breast) was 935 nM and the TGI (MDA-MB-468 breast) was greater than 100 µM. The GI50 (MOLT-4 leukemia) was 645 nM, the TGI (MOLT-4 leukemia) was greater than 100 µM and the GI50 (NCI-H226 lung) was greater than 100 µM. It also gave a TGI (NCI-H226 lung) greater than 100 µM, a GI50 (NCI-H23 lung) greater than 100 µM and a TGI (NCI-H23 lung) greater than 100 µM. For the same compound, the GI50 (NCI-H322M lung) was greater than 100 µM, the TGI (NCI-H322M lung) was greater than 100 µM and the GI50 (NCI-H460 NSCLC) was greater than 100 µM. The TGI (NCI-H460 NSCLC) was greater than 100 µM, the GI50 (NCI-H522 lung) was greater than 100 µM and the TGI (NCI-H522 lung) was greater than 100 µM. It also gave a GI50 (NCI/ADR-RES ovarian) greater than 100 µM, a TGI (NCI/ADR-RES ovarian) greater than 100 µM and a GI50 (OVCAR-3 ovarian) greater than 100 µM. For the same compound, the TGI (OVCAR-3 ovarian) was greater than 100 µM, the GI50 (OVCAR-4 ovarian) was greater than 100 µM and the TGI (OVCAR-4 ovarian) was greater than 100 µM. For the same compound, the GI50 (OVCAR-5 ovarian) was greater than 100 µM, the TGI (OVCAR-5 ovarian) was greater than 100 µM and the GI50 (OVCAR-8 ovarian) was 1790 nM. The TGI (OVCAR-8 ovarian) was greater than 100 µM, the GI50 (PC-3 prostate) was greater than 100 µM and the TGI (PC-3 prostate) was greater than 100 µM. It also gave a GI50 (RPMI-8226 leukemia) of 908 nM, a TGI (RPMI-8226 leukemia) greater than 100 µM and a GI50 (RXF 393 renal) of 750 nM. It also gave a TGI (RXF 393 renal) greater than 100 µM, a GI50 (SF-268 CNS) greater than 100 µM and a TGI (SF-268 CNS) greater than 100 µM. The GI50 (SF-295 CNS) was greater than 100 µM, the TGI (SF-295 CNS) was greater than 100 µM and the GI50 (SF-539 CNS) was greater than 100 µM. It also gave a TGI (SF-539 CNS) greater than 100 µM, a GI50 (SK-MEL-2 melanoma) greater than 100 µM and a TGI (SK-MEL-2 melanoma) greater than 100 µM. It also gave a GI50 (SK-MEL-28 melanoma) greater than 100 µM, a TGI (SK-MEL-28 melanoma) greater than 100 µM and a GI50 (SK-MEL-5 melanoma) greater than 100 µM. For the same compound, the TGI (SK-MEL-5 melanoma) was greater than 100 µM, the GI50 (SK-OV-3 ovarian) was greater than 100 µM and the TGI (SK-OV-3 ovarian) was greater than 100 µM. It also gave a GI50 (SN12C renal) greater than 100 µM, a TGI (SN12C renal) greater than 100 µM and a GI50 (SNB-19 CNS) greater than 100 µM. For the same compound, the TGI (SNB-19 CNS) was greater than 100 µM, the GI50 (SR leukemia) was 932 nM and the TGI (SR leukemia) was greater than 100 µM. For the same compound, the GI50 (SW-620 colon) was greater than 100 µM, the TGI (SW-620 colon) was greater than 100 µM and the GI50 (T-47D breast) was 587 nM. For the same compound, the TGI (T-47D breast) was greater than 100 µM, the GI50 (TK-10 renal) was greater than 100 µM and the TGI (TK-10 renal) was greater than 100 µM. The GI50 (U251 glioblastoma) was greater than 100 µM, the TGI (U251 glioblastoma) was greater than 100 µM and the GI50 (UACC-257 melanoma) was greater than 100 µM. It also gave a TGI (UACC-257 melanoma) greater than 100 µM, a GI50 (UACC-62 melanoma) greater than 100 µM and a TGI (UACC-62 melanoma) greater than 100 µM. It also gave a GI50 (UO-31 renal) greater than 100 µM and a TGI (UO-31 renal) greater than 100 µM.
